Reference: patent US10240216B2 (priority 2013, dated 2019)

Experiments:
[1] = system: a number of bacteria and fungi; conditions: concentration of 1 mg/ml; cited from earlier work
Magnaporthe oryzae = type: cell-based; conditions: at 25 μg/mL
HeLaS3 cells = conditions: 50 μg/mL, 72 h
Paealomyces variotii = type: cell-based
Mucor miehei = type: cell-based
Bacillus brevis = type: cell-based
human neutrophils = conditions: cited from earlier work
a number of bacteria = conditions: concentration of 64 µg/mL; cited from earlier work

## Cc1ccc2c(c1/C=C/C=C/C(=O)O)C(C)CC(C)C2O (stereo not shown) [arohynapene A]
[1]
  antimicrobial activity in vitro against a number of bacteria and fungi: no antimicrobial activity
Magnaporthe oryzae
  inhibition of the spore germination of Magnaporthe oryzae: 100%

## arohynapene D
[1]
  antimicrobial activity in vitro against a number of bacteria and fungi: no antimicrobial activity

## Cc1ccc2c(c1/C=C/C=C/C(=O)O)[C@H](C)C[C@H](C)C2 [tanzawaic acid A]
HeLaS3 cells
  cytotoxic effects against HeLaS3 cells: cytotoxic effects
Paealomyces variotii
  activity in agar diffusion assay against Paealomyces variotii: slight activity
Mucor miehei
  activity in agar diffusion assay against Mucor miehei: slight activity
Bacillus brevis
  activity in agar diffusion assay against Bacillus brevis: slight activity
Human neutrophils
  inhibition of superoxide anion production in human neutrophils: inhibit superoxide anion production

## C[C@@H]1C[C@@](C)(O)Cc2ccc(CO)c(/C=C/C=C/C(=O)O)c21 [tanzawaic acid G, Tanzawaic acids G and H]
A number of bacteria
  activity against a number of bacteria: neither tanzawaic acids G nor H were found to be active

## hynapenes A, B and C [hynapene A]
[1]
  antimicrobial activity in vitro against a number of bacteria and fungi: show antimicrobial activity

## CC1Cc2ccc(CO)c(/C=C/C=C/C(=O)O)c2C(C)C1 (stereo not shown) [arohynapene B]
[1]
  antimicrobial activity in vitro against a number of bacteria and fungi: no antimicrobial activity
Magnaporthe oryzae
  inhibition of the spore germination of Magnaporthe oryzae: 100%

## Tanzawaic acids A, B, C and D [tanzawaic acid B]
Human neutrophils
  inhibition of superoxide anion production in human neutrophils: inhibit superoxide anion production
